These results are taken from patent US20250084095A1, “Aminopyrimidine Derivatives as Cyclin-Dependent Kinase Inhibitors” (Accutar Biotechnology Inc., priority 2023, published 2025).

SMILES strings stand for the structures. Bounds are passed on as bounds.

Holding throughout (type): cell-based
Experiment [1] relates to 22RV1 cells. Description: Cell growth inhibition of 22RV1 cells (CellTiter-Glo). Conditions: Homo sapiens, 22Rv1, 120 h, 5 days, CellTiter-Glo, read-out: 22RV1 Cell Growh GI50. In outline:
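22RV1 cells were plated in RPMI1640 with FBS (20% in one version, 10% in the other) and dosed next day at various concentrations from DMSO stocks. After 5 days at 37 °C, viability was measured by CellTiter-Glo luminescence.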
For orientation: ATP-based viability assays read luminescence as a measure of living cells.

Experiment [2] concerns Phospho-Rb (Ser807/811) in SW1573-CDK6 KO cells. Description: Phospho-Rb expression inhibition in SW1573-CDK6 KO cells quantified by in cell Western. The note with it: Homo sapiens, 24 hours, read-out: SW1573 CDK6 KO pRb IC50. In a few lines:
(§1)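 CRISPR CDK4- or CDK6-knockout SW1573 clones were seeded at 20,000 cells/well overnight, then exposed to compound (0.1% DMSO from 1000× stocks) for 24 h at 37° C in 10% FBS medium. Fixed, methanol-permeabilized cells were co-stained for phospho-Rb Ser807/811 and total Rb, with near-infrared in-cell Western read-out.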

Experiment [3] deals with Phospho-Rb (Ser807/811) in SW1573-CDK4 KO cells. Put plainly: Phospho-Rb expression inhibition in SW1573-CDK4 KO cells quantified by in cell Western. The note with it: Homo sapiens, 24 hours, read-out: SW1573 CDK4 KO pRb IC50. In outline:
as §1

Regarding `Cc1c(-c2nc(N[C@@H]3C[C@H]4CO[C@H](O4)[C@H]3O)ncc2Cl)sc2c(C)c(C(C)(C)O)cnc12` [Compound 277, (1S,3R,4S,5R)-3-((5-chloro-4-(6-(2-hydroxypropan-2-yl)-3,7-dimethylthieno[3,2-b]pyridin-2-yl)pyrimidin-2-yl)amino)-6,8-dioxabicyclo[3.2.1]octan-4-ol], in experiment [1], the GI50 is 120 to 450 nM. Further, the IC50 is at most 40 nM in experiment [2] and over 1000 nM in experiment [3].
On to `Cc1c(CN2CC[C@H](F)C2)n(C(C)C)c2cc(-c3nc(N[C@@H]4C[C@H]5CO[C@H](O5)[C@H]4O)ncc3F)ccc2c1=O` [Compound 293, 7-(5-fluoro-2-(((1S,3R,4S,5R)-4-hydroxy-6,8-dioxabicyclo[3.2.1]octan-3-yl)amino)pyrimidin-4-yl)-2-(((S)-3-fluoropyrrolidin-1-yl)methyl)-1-isopropyl-3-methylquinolin-4(1H)-one], for which the concentration for 50% growth inhibition (GI50) in experiment [1] is at most 120 nM. In addition, the results for the half-maximal inhibitory concentration (IC50) in experiment [2] and in experiment [3] were at most 40 nM and 150 to 1000 nM, respectively.
`CC(C)n1c(N2C(=O)OC[C@@H]2C)nc2c(F)cc(-c3nc(N[C@@H]4C[C@H]5CO[C@H](O5)[C@H]4O)ncc3Cl)cc21` [Compound 298, (S)-3-(6-(5-chloro-2-(((1S,3R,4S,5R)-4-hydroxy-6,8-dioxabicyclo[3.2.1]octan-3-yl)amino)pyrimidin-4-yl)-4-fluoro-1-isopropyl-1H-benzo[d]imidazol-2-yl)-4-methyloxazolidin-2-one]: the GI50 in experiment [1] is 450 to 3000 nM. Further, the figures for the IC50 in experiment [2] and in experiment [3] were 40 to 150 nM and over 1000 nM, respectively.

A word on the GI50: it is the concentration giving 50% growth inhibition. The term IC50 denotes the point on the concentration scale where inhibition reaches its midpoint.
